Usually inhibition stands for the relative decrease from the control value, in per cent. Read a low inhibition as a weak effect.

This experiment has as its target human 11b-hsd-1 (Homo sapiens, UniProt P28845). In words: Inhibition constant Ki of human 11b-hsd-1 (3H-cortisone to 3H-cortisol conversion, HPLC). It is filed as biochemical. The note with it: for inhibition at 0.1 µM: 0.1 μM compound; for Ki: apparent Ki, read-out: Ki app.

Chain of human 11b-hsd-1 (P28845 whole entry): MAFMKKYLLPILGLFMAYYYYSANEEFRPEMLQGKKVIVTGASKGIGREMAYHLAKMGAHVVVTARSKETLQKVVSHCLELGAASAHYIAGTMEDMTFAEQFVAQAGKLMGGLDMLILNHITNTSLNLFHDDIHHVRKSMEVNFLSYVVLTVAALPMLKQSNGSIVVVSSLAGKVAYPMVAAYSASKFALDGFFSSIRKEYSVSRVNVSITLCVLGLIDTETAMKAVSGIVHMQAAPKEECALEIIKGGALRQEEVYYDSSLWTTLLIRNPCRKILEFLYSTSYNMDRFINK

For the compound `CC(C)CN1CCC[C@@H]1C(=O)NCc1c(F)cccc1F` [Example 239], the inhibition at 0.1 µM stood at 97.6% and the Ki was determined as 5.62 nM.

Turning to `O=C(NCc1cccc(F)c1)[C@H]1CCCN1CC1CCCC1` [Example 240], the inhibition at 0.1 µM amounted to 76.3% and the Ki came to 44 nM.

For `O=C(NCc1c(F)cccc1F)[C@H]1CCCN1CC1CCCC1` [Example 241], 0.1 µM produced 81.4% inhibition and the Ki is 32 nM.

Take `O=C(NCc1ccc(F)cc1F)[C@H]1CCCN1CCC(F)(F)F` [Example 242]: testing at 0.1 µM gave an inhibition of 78.9% and the Ki is 44 nM.

As for `O=C(NCc1ccc(F)cc1F)[C@H]1CCCN1Cc1ccc(Cl)cc1` [Example 243], the inhibition at 0.1 µM amounted to 84.9% and the Ki was 15 nM.

Consider `O=C(NCc1c(F)cccc1F)[C@H]1CCCN1Cc1ccc(Cl)cc1` [Example 244], for which at 0.1 µM the inhibition was 87.1% and the Ki came to 18 nM.

Turning to `COc1ccccc1CNC(=O)[C@H]1CCCN1Cc1ccccc1` [Example 245], the inhibition at 0.1 µM came to 84.6% and the Ki came out at 17 nM.

Regarding `Cc1ccccc1CNC(=O)[C@H]1CCCN1Cc1ccccc1` [Example 246], testing at 0.1 µM gave an inhibition of 87.7% and the Ki came to 16 nM.

For the compound `O=C(NCc1ccccc1Cl)[C@H]1CCCN1Cc1ccccc1` [Example 247], testing at 0.1 µM gave an inhibition of 88% and the Ki came out at 14 nM.

As for `O=C(NC12CC3CC(CC(C3)C1)C2)[C@H]1CCCN1Cc1ccccc1` [Example 248], the inhibition at 0.1 µM came to 100% and the Ki is 1.3 nM.

On to `N#Cc1cccc(CN2CCC[C@@H]2C(=O)NC23CC4CC(CC(C4)C2)C3)c1` [Example 249], for which the inhibition at 0.1 µM was determined as 100% and the Ki was found to be 1 nM.

On to `O=C(NC12CC3CC(CC(C3)C1)C2)[C@H]1CCCN1Cc1ccccn1` [Example 250], for which the inhibition at 0.1 µM came to 100% and the Ki amounted to 5.9 nM.

As for `COc1ccccc1CNC(=O)[C@H]1CCCN1Cc1ccc(C#N)cc1` [Example 251], the inhibition at 0.1 µM was 83.5% and the Ki is 47 nM.

On to `Cc1ccccc1CNC(=O)[C@H]1CCCN1Cc1ccc(C#N)cc1` [Example 252], for which the inhibition at 0.1 µM was found to be 82.6% and the Ki stood at 52 nM.

Regarding `N#Cc1ccc(CN2CCC[C@@H]2C(=O)NCc2ccccc2Cl)cc1` [Example 253], the inhibition at 0.1 µM is 100% and the Ki came to 24 nM.

Turning to `N#Cc1ccc(CN2CCC[C@@H]2C(=O)NC23CC4CC(CC(C4)C2)C3)cc1` [Example 254], 0.1 µM produced 100% inhibition and the Ki is 1 nM.

On to `COc1ccccc1CNC(=O)[C@H]1CCCN1CC(C)C` [Example 255], for which testing at 0.1 µM gave an inhibition of 100% and the Ki is 8.6 nM.

Consider `Cc1ccccc1CNC(=O)[C@H]1CCCN1CC(C)C` [Example 256], for which the inhibition at 0.1 µM was 100% and the Ki came out at 7 nM.

On to `CC(C)CN1CCC[C@@H]1C(=O)NCc1ccccc1Cl` [Example 257], for which the inhibition at 0.1 µM amounted to 100% and the Ki is 2.1 nM.

In the case of `Cc1cccc(CNC(=O)[C@H]2CCCN2CC(C)C)c1` [Example 258], testing at 0.1 µM gave an inhibition of 90.1% and the Ki was 24 nM.

With `Cc1ccc(CNC(=O)[C@H]2CCCN2CC(C)C)cc1` [Example 259], 0.1 µM produced 100% inhibition and the Ki was determined as 11 nM.

For the compound `COc1cccc(CNC(=O)[C@H]2CCCN2CC(C)C)c1` [Example 260], the inhibition at 0.1 µM amounted to 89.6% and the Ki amounted to 16 nM.

For the compound `COc1ccccc1CNC(=O)[C@H]1CCCN1CC1CCCC1` [Example 261], 0.1 µM produced 100% inhibition and the Ki amounted to 25 nM.

As to `COc1cccc(CNC(=O)[C@H]2CCCN2CC2CCCC2)c1` [Example 262], the inhibition at 0.1 µM stood at 76% and the Ki is 60 nM.

Regarding `COc1ccccc1CNC(=O)[C@H]1CCCN1CCC(F)(F)F` [Example 263], testing at 0.1 µM gave an inhibition of 77.5% and the Ki is 62 nM.

Consider `Cc1ccccc1CNC(=O)[C@H]1CCCN1CCC(F)(F)F` [Example 264], for which the inhibition at 0.1 µM is 86.5% and the Ki amounted to 10 nM.

Regarding `O=C(NCc1ccccc1Cl)[C@H]1CCCN1CCC(F)(F)F` [Example 265], testing at 0.1 µM gave an inhibition of 86% and the Ki came to 4.1 nM.

Regarding `COc1ccccc1CNC(=O)[C@H]1CCCN1Cc1cccc(Cl)c1` [Example 266], at 0.1 µM the inhibition was 77.9% and the Ki amounted to 57 nM.

On to `COc1ccccc1CNC(=O)[C@H]1CCCN1Cc1ccc(Cl)cc1` [Example 267], for which 0.1 µM produced 100% inhibition and the Ki was determined as 12 nM.

Consider `Cc1ccccc1CNC(=O)[C@H]1CCCN1Cc1ccc(Cl)cc1` [Example 268], for which testing at 0.1 µM gave an inhibition of 100% and the Ki stood at 10 nM.

`COc1ccccc1CNC(=O)[C@H]1CCCN1CCc1ccccc1` [Example 269]: the inhibition at 0.1 µM was 77.8% and the Ki stood at 66 nM.

For the compound `Cc1ccccc1CNC(=O)[C@H]1CCCN1CCc1ccccc1` [Example 270], at 0.1 µM the inhibition was 84.7% and the Ki was 35 nM.

With `O=C(NCc1ccccc1Cl)[C@H]1CCCN1CCc1ccccc1` [Example 271], the inhibition at 0.1 µM stood at 83.8% and the Ki is 26 nM.

As to `CN(Cc1ccccc1)C(=O)[C@H]1COCCN1Cc1ccccc1` [Example 272], testing at 0.1 µM gave an inhibition of 71.7% and the Ki was 1 nM.

Turning to `O=C(NCc1ccc(F)cc1)[C@H]1COCCN1Cc1ccccc1` [Example 274], the inhibition at 0.1 µM was 78.4% and the Ki was determined as 2.6 nM.

For the compound `N#Cc1cccc(CN2CCOC[C@@H]2C(=O)NC2C3CC4CC(C3)CC2C4)c1` (stereo partly shown) [Example 275], at 0.1 µM the inhibition was 100% and the Ki came out at 1.5 nM.

As to `CC(C)CN1CCOC[C@@H]1C(=O)NCc1ccccc1` [Example 278], the inhibition at 0.1 µM came out at 76% and the Ki is 49.2 nM.

Take `O=C(NC1C2CC3CC(C2)CC1C3)[C@H]1COCCN1CC1CC1` (stereo partly shown) [Example 279]: testing at 0.1 µM gave an inhibition of 100% and the Ki was found to be 3 nM.

For the compound `O=C(NCc1ccc(F)cc1F)[C@H]1COCCN1Cc1ccccc1` [Example 280], the inhibition at 0.1 µM was 81.6% and the Ki amounted to 49 nM.

As for `CC(C)CN1CCOC[C@@H]1C(=O)NCc1ccc(F)cc1F` [Example 281], at 0.1 µM the inhibition was 84.9% and the Ki stood at 48 nM.

Take `O=C(NC1CCCCC1)[C@H]1CCCN1Cc1ccccc1` [Example 282]: the inhibition at 0.1 µM was found to be 100% and the Ki was 2.34 nM.

`O=C(N[C@@H]1CCc2ccccc21)[C@H]1CCCN1Cc1ccccc1` [Example 283]: the inhibition at 0.1 µM came to 100% and the Ki amounted to 5.6 nM.

With `N#Cc1ccccc1CN1CCC[C@@H]1C(=O)N[C@@H]1CCc2ccccc21` [Example 284], the inhibition at 0.1 µM worked out at 93.1% and the Ki worked out at 11.5 nM.

For `N#Cc1ccc(CN2CCC[C@@H]2C(=O)N[C@@H]2CCc3ccccc32)cc1` [Example 285], at 0.1 µM the inhibition was 100% and the Ki amounted to 7.82 nM.

`CCCN1CCC[C@@H]1C(=O)N[C@@H]1CCc2ccccc21` [Example 286]: the inhibition at 0.1 µM worked out at 91.4% and the Ki was found to be 5.8 nM.

`CC(C)CN1CCC[C@@H]1C(=O)N[C@H](C)c1ccccc1` [Example 287]: the inhibition at 0.1 µM was found to be 98.7% and the Ki stood at 3.39 nM.

With `CC(C)CN1CCC[C@@H]1C(=O)N[C@H]1c2ccccc2C[C@H]1O` [Example 288], the inhibition at 0.1 µM was found to be 99.1% and the Ki came to 5.51 nM.

With `CC(C)CN1CCC[C@@H]1C(=O)NC1Cc2ccccc2C1` [Example 289], at 0.1 µM the inhibition was 100% and the Ki turned out to be 1.2 nM.

As to `CC(C)CN1CCC[C@@H]1C(=O)NC(C)c1ccc(F)cc1` (stereo partly shown) [Example 290], the inhibition at 0.1 µM came to 96.2% and the Ki was found to be 6.85 nM.

On to `CC(C)CN1CCC[C@@H]1C(=O)N[C@@H]1CCc2ccccc21` [Example 291], for which the inhibition at 0.1 µM was 100% and the Ki was 1 nM.

Take `C[C@@H](NC(=O)[C@H]1CCCN1CC1CCCC1)c1ccccc1` [Example 292]: 0.1 µM produced 92.1% inhibition and the Ki stood at 9.59 nM.

With `O=C(N[C@H]1c2ccccc2C[C@H]1O)[C@H]1CCCN1CC1CCCC1` [Example 293], at 0.1 µM the inhibition was 92.6% and the Ki amounted to 22.4 nM.

With `O=C(NC1Cc2ccccc2C1)[C@H]1CCCN1CC1CCCC1` [Example 294], the inhibition at 0.1 µM was 100% and the Ki came out at 8.52 nM.

With `O=C(N[C@@H]1CCCc2ccccc21)[C@H]1CCCN1Cc1ccccc1` [Example 295], the inhibition at 0.1 µM came out at 100% and the Ki is 4.5 nM.

Take `C[C@@H](NC(=O)[C@H]1CCCN1Cc1ccccc1)c1ccc(Cl)cc1` [Example 296]: the inhibition at 0.1 µM is 95.7% and the Ki stood at 11.4 nM.

Turning to `N#Cc1ccc(CN2CCC[C@@H]2C(=O)N[C@@H]2CCCc3ccccc32)cc1` [Example 297], the inhibition at 0.1 µM was found to be 100% and the Ki was 3.7 nM.

In the case of `CC(C)CN1CCC[C@@H]1C(=O)N[C@H](C)c1ccc(Cl)cc1` [Example 298], the inhibition at 0.1 µM worked out at 100% and the Ki turned out to be 1.77 nM.

As for `O=C(N[C@@H]1CCCc2ccccc21)[C@H]1CCCN1CC1CCCC1` [Example 299], the inhibition at 0.1 µM is 100% and the Ki was determined as 2.23 nM.

Turning to `O=C(N[C@H]1c2ccccc2C[C@H]1O)[C@H]1COCCN1Cc1ccccc1` [Example 301], at 0.1 µM the inhibition was 89.2% and the Ki stood at 11.1 nM.

As to `O=C(NC1CCCCC1)[C@H]1COCCN1Cc1ccccc1` [Example 302], the inhibition at 0.1 µM is 99.1% and the Ki was determined as 3.2 nM.

On to `CN(C(=O)[C@H]1COCCN1Cc1ccccc1)C1CCCCC1` [Example 303], for which testing at 0.1 µM gave an inhibition of 50% and the Ki worked out at 4.4 nM.

Regarding `O=C(N[C@@H]1CCc2ccccc21)[C@H]1COCCN1Cc1ccccc1` [Example 304], the inhibition at 0.1 µM was found to be 59.4% and the Ki turned out to be 3.6 nM.

The values are drawn from patent US20050261290A1, “Novel compounds of proline and morpholine derivatives” (priority 2004, published 2005).
